Data published in patent US8163909B2, “Substituted hydroxyethyl amine compounds as beta-secretase modulators and methods of use” (Amgen Inc., priority 2007, dated 2012).
pIC50: −log10 of the molar value. Like-named read-outs stand apart in the source and are kept apart here.

How the values were obtained:
[1] = molecular target: CYP3A4 (CYP3A) (Homo sapiens, UniProt P08684); test: in vitro; details: microsomes, pH 7.4;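 note: inhibition of CYP3A-mediated 1-hydroxymidazolam formation after 10 min incubation with NADPH, quantified by HPLC MS relative to metabolite produced without test compound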
Sequence of CYP3A4 (CYP3A) (P08684 2-503): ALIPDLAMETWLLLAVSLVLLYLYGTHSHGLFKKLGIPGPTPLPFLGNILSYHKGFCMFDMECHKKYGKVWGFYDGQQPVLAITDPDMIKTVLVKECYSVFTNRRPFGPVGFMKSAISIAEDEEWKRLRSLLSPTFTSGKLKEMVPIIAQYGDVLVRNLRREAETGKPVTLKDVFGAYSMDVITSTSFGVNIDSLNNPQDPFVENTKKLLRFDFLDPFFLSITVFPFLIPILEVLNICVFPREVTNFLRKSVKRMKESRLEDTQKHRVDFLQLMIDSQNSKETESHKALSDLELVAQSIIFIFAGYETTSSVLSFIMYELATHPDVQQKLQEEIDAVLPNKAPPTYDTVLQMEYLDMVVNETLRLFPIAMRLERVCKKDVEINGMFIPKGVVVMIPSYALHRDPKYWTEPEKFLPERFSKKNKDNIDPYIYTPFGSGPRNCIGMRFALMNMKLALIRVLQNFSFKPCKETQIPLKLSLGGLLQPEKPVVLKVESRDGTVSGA

[2] = molecular target: CYP2D6 (Homo sapiens, UniProt P10635); test: CYP2D6 inhibition assay (bufuralol, pooled human liver microsomes); details: for IC50: 2D6 IC50 (uM)
Sequence of CYP2D6 (P10635 whole entry): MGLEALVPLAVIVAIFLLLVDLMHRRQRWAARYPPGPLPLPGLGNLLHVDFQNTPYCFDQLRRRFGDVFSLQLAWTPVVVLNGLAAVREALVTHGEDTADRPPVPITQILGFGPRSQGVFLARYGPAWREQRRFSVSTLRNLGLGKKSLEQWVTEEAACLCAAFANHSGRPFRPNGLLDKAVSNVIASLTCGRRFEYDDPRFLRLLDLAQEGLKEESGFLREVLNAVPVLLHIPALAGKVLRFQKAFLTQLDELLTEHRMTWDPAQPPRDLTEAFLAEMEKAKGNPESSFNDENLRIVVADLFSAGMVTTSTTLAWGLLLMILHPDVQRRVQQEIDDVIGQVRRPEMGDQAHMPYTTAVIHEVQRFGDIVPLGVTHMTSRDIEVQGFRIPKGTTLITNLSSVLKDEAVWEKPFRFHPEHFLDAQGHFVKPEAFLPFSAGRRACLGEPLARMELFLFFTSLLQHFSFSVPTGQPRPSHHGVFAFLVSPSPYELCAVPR

[3] = Microsomal stability assay, human liver microsomes;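 note: pooled human liver microsomes at 0.25 mg/mL with 1 µM compound and NADPH at 37 °C, pH 7.4, for 30 min, unchanged parent quantified by LC-MS/MS against the 0 min sample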
[4] = molecular target: Beta Secretase enzyme (BACE) (Homo sapiens, UniProt P56817); test: In vitro enzymatic BACE FRET (fluorescence resonance energy transfer) assay; assay type: biochemical;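 note: fluorescence read after 1 h with 50 nM quenched peptide substrate spanning the BACE cleavage site, in pH 4.2 acetate buffer containing 10% DMSO and nonionic detergent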
Sequence of Beta Secretase enzyme (BACE) (P56817 46-501): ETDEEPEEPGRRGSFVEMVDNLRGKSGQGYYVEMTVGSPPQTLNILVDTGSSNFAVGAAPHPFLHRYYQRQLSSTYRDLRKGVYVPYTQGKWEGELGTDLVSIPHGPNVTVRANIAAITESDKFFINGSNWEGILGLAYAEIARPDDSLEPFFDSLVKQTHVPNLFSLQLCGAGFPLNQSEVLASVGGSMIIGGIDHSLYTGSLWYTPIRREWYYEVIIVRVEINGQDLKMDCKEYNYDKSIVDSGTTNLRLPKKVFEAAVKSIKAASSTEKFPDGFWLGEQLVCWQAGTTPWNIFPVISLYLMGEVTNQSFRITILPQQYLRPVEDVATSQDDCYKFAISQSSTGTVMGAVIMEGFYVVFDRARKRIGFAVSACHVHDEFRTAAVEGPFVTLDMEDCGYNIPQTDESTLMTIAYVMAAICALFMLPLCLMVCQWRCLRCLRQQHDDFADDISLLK

[5] = Microsomal stability assay, rat liver microsomes;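 note: rat liver microsomes (0.25 mg/mL) with about 1 µM compound plus 1 mM NADPH, pH 7.4, 37 °C for 30 min, parent left measured by LC-MS/MS against 0 min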
[6] = test system: Aβ40 in conditioned medium of cells stably expressing Amyloid Precursor Protein (APP); test: In vitro BACE cell-based assay (Aβ40 in conditioned medium, sandwich ELISA); details: Homo sapiens;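 note: compounds added as a dilution series, secreted peptide quantified by europium time-resolved fluorescence readout, potency fitted from percent of control versus compound concentration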
[7] = read-out: BACE1 FRET assay (IC50)
[8] = HEK293, HEK cells, read-out: HEK cell assay (IC50)
[9] = BACE enzyme assay IC50, read-out: BACE1 FRET assay
[10] = HEK293, HEK cell-based assay IC50, read-out: HEK cell assay
[11] = BACE enzyme assay, read-out: BACE1 FRET assay
[12] = HEK293, HEK cells, read-out: HEK cell assay
[13] = 2D6 IC50, CYP enzyme inhibition
[14] = Table 2, read-out: BACE1 FRET assay
[15] = HEK293, Table 2, HEK cells, read-out: HEK cell assay

| SMILES | pIC50 [1] | HLM ([3]; human liver microsomes) | RLM ([5]; rat liver microsomes) | HLM ([3]; human liver microsomal data) | RLM ([5]; rat liver microsomal data) | pIC50 [2, 13] | pIC50 [4, 14] | pIC50 [6, 15] | further results |
| --- | --- | --- | --- | --- | --- | --- | --- | --- | --- |
| COCC(=O)N[C@@H](Cc1cccc(F)c1)[C@H](O)CN[C@H]1CC2(CCC2)Oc2c1cc(CC(C)(C)OC)cc2-n1ccnc1.O=C(O)C(F)(F)F [Example 423] | 7.00 | 35 µL/min/mg | 132 µL/min/mg | – | – | – | – | – | pIC50 ([2]; 2D6 IC50, CYP2D6 inhibition): 6.52; pIC50 [4, 7]: 6.24; pIC50 [6, 8]: 7.20 |
| CO[C@H](C)C(=O)N[C@@H](Cc1ccc2c(c1)OCO2)[C@H](O)CN[C@H]1CC2(CCC2)Oc2nc3c(cc21)[C@H](C(C)C)CO3 [compound 665] | 6.70 | 61 µL/min/mg | 126 µL/min/mg | – | – | – | – | – | pIC50 ([2]; 2D6 IC50, CYP2D6 inhibition): 5.40; pIC50 [4, 7]: 6.03; pIC50 [6, 8]: 6.60 |
| COCC(=O)N[C@@H](Cc1ccc(F)c(-c2cscn2)c1)[C@H](O)CN[C@H]1CC2(CCC2)Oc2ncc(CC(C)(C)C)cc21 [compound 683, N-((1S,2R)-3-(((4′S)-6′-(2,2-dimethylpropyl)-3′,4′-dihydrospiro[cyclobutane-1,2′-pyrano[2,3-b]pyridin]-4′-yl)amino)-1-(4-fluoro-3-(1,3-thiazol-4-yl)benzyl)-2-hydroxypropyl)-2-methoxyacetamide] | 6.70 | 102 µL/min/mg | 61 µL/min/mg | – | – | – | – | – | IC50 ([2]; CYP2D6 inhibition): 2.3 µM; pIC50 [4, 9]: 8.05; pIC50 [6, 10]: 7.51 |
| CC(C)(C)Cc1cnc2c(c1)[C@@H](NC[C@@H](O)[C@H](Cc1ccc3c(c1)OCO3)NC(=O)C1CCO1)CC1(CCC1)O2 (stereo partly drawn) [compound 503, N-((1S,2R)-1-(1,3-benzodioxol-5-ylmethyl)-3-(((4′S)-6′-(2,2-dimethylpropyl)-3′,4′-dihydrospiro[cyclobutane-1,2′-pyrano[2,3-b]pyridin]-4′-yl)amino)-2-hydroxypropyl)-2-oxetanecarboxamide] | 6.70 | – | – | 23 µL/min/mg | 130 µL/min/mg | – | – | – | IC50 ([2]; CYP enzyme inhibition): 3.3 µM; pIC50 [4, 11]: 7.68; pIC50 [6, 12]: 7.77 |
| CO[C@H](C)C(=O)N[C@@H](Cc1cc(F)cc(F)c1)[C@H](O)CN[C@H]1CC2(CCC2)Oc2c1cc(C1CC1)cc2-n1ccnc1 [compound 707] | ≥ 7.52 | 14 µL/min/mg | 39 µL/min/mg | – | – | – | – | – | IC50 ([2]; CYP2D6 inhibition): 0.6 µM; pIC50 [4, 9]: 6.94; pIC50 [6, 10]: 7.55 |
| Cc1csc(CN2CCO[C@H](C(=O)N[C@@H](Cc3ccc(F)cc3)[C@H](O)CN[C@H]3CC4(CCC4)Oc4ncc(CC(C)(C)C)cc43)C2)n1 [compound 734] | 7.00 | 543 µL/min/mg | 335 µL/min/mg | – | – | – | – | – | IC50 ([2]; CYP2D6 inhibition): 2.4 µM; pIC50 [4, 9]: 7.92; pIC50 [6, 10]: 7.85 |
| COCC(=O)N[C@@H](Cc1cc(F)cc(F)c1)[C@H](O)CN[C@H]1CC2(CCC2)Oc2c(-c3nccs3)cc(CC(C)C)cc21 [compound 460] | 6.10 | – | – | 775 µL/min/mg | 775 µL/min/mg | 5.41 | 9.00 | 7.55 | – |
| CC(=O)CC(=O)N[C@@H](Cc1cccc(F)c1)[C@H](O)CN[C@H]1CC2(CCC2)Oc2ncc(CC(C)(C)C)cc21 [compound 466] | 5.92 | – | – | 296 µL/min/mg | 165 µL/min/mg | 5.05 | 8.40 | 8.10 | – |
| COCC(=O)N[C@@H](Cc1cccc(F)c1)[C@H](O)CN[C@@H]1CC2(CCC2)Oc2c1cc(CC(C)(C)C)nc2-n1ccnc1 [compound 502] | 7.00 | – | – | 54 µL/min/mg | 158 µL/min/mg | – | – | – | IC50 ([2]; CYP enzyme inhibition): 0.8 µM; pIC50 [4, 11]: 5.70; pIC50 [6, 12]: 5.73 |
| CC(=O)N[C@@H](Cc1cccc(C#N)c1)[C@H](O)CN[C@H]1CC2(CCC2)Oc2c(-c3ccncc3)cc(CC(C)(C)C)cc21 [compound 637] | 7.00 | 34 µL/min/mg | 105 µL/min/mg | – | – | – | – | – | pIC50 ([2]; 2D6 IC50, CYP2D6 inhibition): 5.55; pIC50 [4, 7]: 8.00; pIC50 [6, 8]: 8.40 |
| COCC(=O)N[C@@H](Cc1cccc([C@H]2CCCO2)c1)[C@H](O)CN[C@H]1CC2(CCC2)Oc2ncc(CC(C)(C)C)cc21 [compound 916] | 6.40 | – | – | 399 µL/min/mg | 644 µL/min/mg | 5.09 | – | – | IC50 ([4]; BACE enzyme assay, IC50's in uM, read-out: BACE1 FRET assay): 9.5 µM; IC50 ([6]; HEK293, cell-based assay, HEK cells, IC50's in uM, read-out: HEK cell assay): 2.25 µM |
| COCC(=O)N[C@@H](Cc1cc(F)cc(F)c1)[C@H](O)CN[C@H]1CC2(CCC2)Oc2c1cc(CC(C)(C)C)cc2-n1ccnc1 [compound 475] | 7.30 | – | – | 26 µL/min/mg | 128.5 µL/min/mg | 5.76 | 7.74 | 8.10 | – |
| CO[C@H](C)C(=O)N[C@@H](Cc1ccc(F)cc1)[C@H](O)CN[C@H]1CC2(CCC2)Oc2c1cc(CC(C)C)cc2-n1ccnc1 [compound 482] | 7.00 | – | – | 27 µL/min/mg | 194 µL/min/mg | 5.44 | 6.82 | 6.37 | – |
